Columns and labels:
HEK293-CCK2i4svR cells = test: Radioligand uptake and internalization in HEK293-CCK2i4svR cells; format: cell-based, human
Method: A day before the experiment, HEK293-CCK2i4svR cells were seeded in six-well plates. The next day, cells were rinsed with ice-cold internalization medium (IM: DMEM Glutamax-I, supplemented by 1% (v/v) FBS) and then the fresh medium was added (1.2 mL) at 37 °C. A further portion of IM (150 µL) was added in the upper well-row, and DG2 solution in IM (150 µL) was added in the lower row (to a final concentration of 1 μM; non-specific series). Each of the test radioligands, [^67Ga]Ga/[^111In]In/[^177Lu]Lu-GAS1/3 and [^67Ga]Ga/[^111In]In-GAS2, was finally added (250 fmol total conjugates in 150 μL 0.5% BSA-PBS) in all the wells and the plates were incubated at for 1 h at 37 °C in an Incubator-Orbital Shaker unit (MPM Instr. SrI, Bernareggio, MI, Italy); [^111In]In-GAS1/2/3 were incubated for 15 min, 30 min, 1 h and 2 h. At the predetermined time points, the plates were placed on ice, the medium was collected, and the plates were rinsed with 0.5% BSA-PBS (1 mL). Cells were subsequently treated with an acid-wash solution (2 × 600 µL; 50 mM glycine buffer pH 2.8, 0.1 M NaCl) and the fractions collected (membrane-bound). After briefly washing with 0.5% BSA-PBS (1 mL), the cells were lysed with 1 N NaOH (2 × 600 µL), and the fractions were collected (internalized). The radioactivity content of collected fractions was counted in the gamma counter, and the percentage of internalized and membrane-bound fractions per time point were calculated with Microsoft Excel. Specific internalized and membrane-bound counts were determined by subtracting the respective non-specific (in the presence of 1 μM DG2) from the respective total counts. Results represent specific internalized/membrane bound ± SD of total added radioactivity per well from three experiments performed in triplicate.

[1] = Radioligand stability in mice (radio-HPLC of blood and urine); format: in vivo; details: mean ± SD
Method: The formation of radiometabolites which can be detected in the blood was tested in blood samples collected 5 min post-injection (pi) of each of the radioligands [^67Ga]Ga/[^111In]In/[^177Lu]Lu-GAS1/3 and [^67Ga]Ga/[^111In]In-GAS2. For this study, in-house male Swiss albino mice (body weight: 30 ± 5 g, provided by the NCSR “Demokritos” Animal House) were used in groups of three. The animals received, through the tail vein, a 100-μL bolus containing each radioligand tested (2.5–3 nmol of the total conjugate in vehicle: saline/EtOH 9/1 v/v, corresponding to: up to 11 MBq for In-111, up to 13 MBq for Ga-67 and up to 74 MBq for Lu-177). Mice were euthanized, and blood was collected directly from the heart using a prechilled penicillin syringe and transferred in a prechilled EDTA-containing Eppendorf Protein LoBind® tube on ice (40 µL, 50 mM Na2EDTA solution). After centrifugation (10 min, 2000× g/4 °C, in a Hettich, Universal 320R, centrifuge), the blood plasma was collected, mixed with chilled MeCN in a 1/1 v/v ratio and centrifuged again (10 min, 15,000× g/4 °C). Supernatants were collected and concentrated to a small volume (≈50–100 μL) under a gentle N2-flux at 40 °C. They were then diluted with physiological saline (≈400 μL) and filtered through a Millex GV filter (0.22 μm, 13 mm Ø, Millipore, Milford, CT, USA). Aliquots of the filtrate were analyzed by radio-RP-HPLC using a Waters Symmetry Shield RP18 cartridge column (5 μm, 3.9 mm × 20 mm) eluted at a flow rate of 1.0 mL/min with the following gradient: 100% A/0% B to 55% A/45% B in 45 min; A = 0.1% aqueous TFA (v/v) and B = MeCN (system 2). The elution time (tR) of each parent radioligand was determined by coinjection of blood samples with an aliquot of the labeling solution on the HPLC column. Results were calculated as the average percentage of intact radioligand ± SD derived from three independent experiments.
Following the same injection protocol, radioligands were administered in additional groups of mice, but this time animals were euthanized 30 min pi. The urine was immediately collected from the bladder using a prechilled syringe and transferred as before in a prechilled EDTA-containing Eppendorf Protein LoBind® centrifuge tube on ice (40 µL, 50 mM Na2EDTA solution) and 0.1 mL of physiological saline. Urine proteins were precipitated by adding chilled MeCN in a 1/1 v/v ratio followed by a 10 min centrifugation step (15,000× g/4 °C). The supernatant was then collected and treated following the blood sample workup procedure. Aliquots of the Millex-GV filtrate (containing >90% of total urine activity) were analyzed by radio-HPLC, adopting the aforementioned conditions. Results were calculated as the average percentage of intact radioligand ± SD derived from three independent experiments.

[2] = system: SCID mice bearing twin HEK293-CCK2i4svR and wtHEK293 tumors; test: Biodistribution in SCID mice bearing twin HEK293-CCK2i4svR and wtHEK293 xenografts; format: in vivo
Method: Inocula containing a suspension of freshly harvested HEK293-CCK2i4svR/wtHEK293 cells (150 μL, 1.8 × 10^7/1.4 × 10^7 cells, respectively, in normal saline) were subcutaneously (sc) injected in the right and left flanks of male SCID mice (24.5 ± 2.3 g body weight, six weeks of age on arrival day, NCSR “Demokritos” Animal House Facility). Well-palpable tumors (0.42 ± 0.37/0.25 ± […], respectively) were grown at the inoculation site 3–4 weeks later, and biodistribution was conducted. On the day of biodistribution, animals were divided into groups of four and received the radioligand through the tail vein as a bolus (100 μL, containing each of: i. 78–91 kBq [^67Ga]GAS1/2/3 corresponding to 7–17 pmol GAS1/2/3; ii. 74–92 kBq [^111In]GAS1/2/3 corresponding to 20–25 pmol GAS1/2/3; iii. 730 kBq [^177Lu]Lu-GAS1/3 corresponding to 40 pmol GAS1/3, in-vehicle: saline/EtOH 9/1 v/v). Animals were euthanized at predetermined time intervals depending upon the radionuclide applied (for [^67Ga]Ga-GAS1/2/3: 1, 4 and 24 h pi; for [^111In]In-GAS1/2/3: 4 and 24 h pi–two extra groups of mice receiving gelofusine together with [^111In]In-GAS1/2 at 4 and 24 h pi were included; and for [^177Lu]Lu-GAS1/3: 4, 24, 48, 72 and 96 h pi). Mice were dissected, and blood samples, organs of interest and tumors were rapidly collected, weighted and counted in the gamma counter. Biodistribution data was calculated as the percentage of the administered dose per gram tissue (%IA/g) with the aid of suitable standards of the administered dose and the Microsoft Excel program. Results are presented as mean % IA/g values ± SD, n = 4 per time point, as determined by the PRISM^TM 6.0 GraphPad software (San Diego, CA, USA).

- Intact radioligand in blood ([1]; mice blood collected 5 min pi): 93.9 ± 0.6 (3) %
- Intact radioligand in urine ([1]; mice urine collected 30 min pi): 80.2 ± 1.0 (3) %
- Biodistribution, Blood ([2]; 1 h pi): 6.53 ± 1.33 %IA/g
- Biodistribution, CCK2i4svR(+) Tumor ([2]; 1 h pi): 12.62 ± 1.76 %IA/g
- Biodistribution, CCK2i4svR(-) Tumor ([2]; 1 h pi): 1.62 ± 0.12 %IA/g
- Biodistribution, Femur ([2]; 1 h pi): 0.97 ± 0.12 %IA/g
- Biodistribution, Heart ([2]; 1 h pi): 2.11 ± 0.86 %IA/g
- Biodistribution, Intestines ([2]; 1 h pi): 2.33 ± 0.44 %IA/g
- Biodistribution, Kidneys ([2]; 1 h pi): 5.78 ± 0.48 %IA/g
- Biodistribution, Liver ([2]; 1 h pi): 3.39 ± 0.35 %IA/g
- Biodistribution, Lungs ([2]; 1 h pi): 3.63 ± 0.69 %IA/g
- Biodistribution, Muscle ([2]; 1 h pi): 0.61 ± 0.07 %IA/g
- Biodistribution, Pancreas ([2]; 1 h pi): 2.26 ± 0.18 %IA/g
- Biodistribution, Spleen ([2]; 1 h pi): 1.63 ± 0.16 %IA/g
- Biodistribution, Stomach ([2]; 1 h pi): 1.09 ± 0.22 %IA/g
- Biodistribution, Blood ([2]; 4 h pi): 1.25 ± 0.27 %IA/g
- Biodistribution, CCK2i4svR(-) Tumor ([2]; 4 h pi): 0.75 ± 0.19 %IA/g
- Biodistribution, Femur ([2]; 4 h pi): 0.29 ± 0.16 %IA/g
- Biodistribution, Heart ([2]; 4 h pi): 0.47 ± 0.09 %IA/g
- Biodistribution, Intestines ([2]; 4 h pi): 2.84 ± 0.38 %IA/g
- Biodistribution, Kidneys ([2]; 4 h pi): 3.59 ± 0.60 %IA/g
- Biodistribution, Liver ([2]; 4 h pi): 2.49 ± 0.31 %IA/g
- Biodistribution, Lungs ([2]; 4 h pi): 1.19±0.21 %IA/g
- Biodistribution, Muscle ([2]; 4 h pi): 0.19±0.07 %IA/g
- Biodistribution, Pancreas ([2]; 4 h pi): 0.51 ± 0.09 %IA/g
- Biodistribution, Spleen ([2]; 4 h pi): 0.78±0.02 %IA/g
- Biodistribution, Stomach ([2]; 4 h pi): 0.37 ± 0.08 %IA/g
- Biodistribution, Blood ([2]; 24 h pi): 0.08 ± 0.01 %IA/g
- Biodistribution, CCK2i4svR(+) Tumor ([2]; 24 h pi): 2.47 ± 0.41 %IA/g
- Biodistribution, CCK2i4svR(-) Tumor ([2]; 24 h pi): 0.00 ± 0.00 %IA/g
- Biodistribution, Femur ([2]; 24 h pi): 0.18 ± 0.04 %IA/g
- Biodistribution, Heart ([2]; 24 h pi): 0.13 ± 0.01 %IA/g
- Biodistribution, Intestines ([2]; 24 h pi): 0.32 ± 0.13 %IA/g
- Biodistribution, Kidneys ([2]; 24 h pi): 0.88 ± 0.17 %IA/g
- Biodistribution, Liver ([2]; 24 h pi): 0.75 ± 0.08 %IA/g
- Biodistribution, Lungs ([2]; 24 h pi): 0.31 ± 0.16 %IA/g
- Biodistribution, Muscle ([2]; 24 h pi): 0.05 ± 0.02 %IA/g
- Biodistribution, Pancreas ([2]; 24 h pi): 0.22 ± 0.01 %IA/g
- Biodistribution, Spleen ([2]; 24 h pi): 0.51 ± 0.12 %IA/g
- Biodistribution, Stomach ([2]; 24 h pi): 0.18 ± 0.02 %IA/g
SMILES: CC(C)(C)C(=O)CN1C(=O)[C@H](NC(=O)Nc2cccc(C(=O)NCCOCCOCCOCCNC(=O)[C@H](CCC(=O)O)NC(=O)CN3CCN(CC(=O)[O-])CCN(CC(=O)[O-])CCN(CC(=O)[O-])CC3)c2)CN(C2CCCCC2)c2ccccc21.[67Ga+3] (stereo in doubt) [[^67Ga]Ga-GAS1]
- Internalized to membrane-bound ratio (HEK293-CCK2i4svR cells): 0.7
- Internalized fraction (HEK293-CCK2i4svR cells; 1 h 37 °C, specific): 1.79 ± 0.45 % of total added activity
- Cell uptake (internalized + membrane-bound) (HEK293-CCK2i4svR cells; 1 h 37 °C, specific, of total added activity): 4.26 ± 0.99%

— PMC8954547, “Nonpeptidic Z360-Analogs Tagged with Trivalent Radiometals as Anti-CCK2R Cancer Theranostic Agents: A Preclinical Study” (Pharmaceutics, 2022)
